Measurements: PubChem BioAssay AID1963430 (Molecular Pharmacology Branch, DTP, NCI, 2024)
Where “and” joins values, the source holds several entries; their conditions need not be identical. Equal entries are not always repeated. Values belong to the compound of their own block, whether it stands above or below them.

Tested on: 521955-158-R2-J5-PDC complex spheroid growth, % test/control
Experiment: Anticancer human tumor 521955-158-R2-J5-PDC patient-derived pancreatic carcinoma cell line growth inhibition [Asc]
Details: for viability, T/C: stronger effect = lower value
Procedure, shortened: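 Complex spheroids combining tumor cells with HUVEC endothelial cells and human MSCs, at 37 degrees C, 5% CO2; agents tested alone or combined, half-log dilutions from at or near clinical Cmax, or 10 microM if Cmax unknown.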
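Further: spheroids exposed to agents for 7 days before readout.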
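Wherever viability, T/C is given: 100% = DMSO vehicle control viability.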

IC50 (curve of first compound, second compound 0.03 µM): > 10 µM
IC50 (curve of first compound, second compound 0.0949 µM): > 10 µM
IC50 (curve of first compound, second compound 0.3 µM): > 10 µM
IC50 (curve of first compound, second compound 0.949 µM): > 10 µM
IC50 (curve of first compound, second compound 3 µM): > 10 µM
SMILES: C=CC(=O)N1CCN(c2nc(=O)n(-c3c(C)ccnc3C(C)C)c3nc(-c4c(O)cccc4F)c(F)cc23)C(C)C1 (configuration not stated) + CCN1C(C(=O)NC23CCC(C(=O)O)(CC2)CC3)C(c2cccc(Cl)c2F)C2(C(=O)Nc3cc(Cl)ccc32)C12CCCCC2
viability, T/C (second compound 0.03 µM, first compound 0.0316 µM): 75.2%
viability, T/C (second compound 0.03 µM, first compound 0.1 µM): 67.4%
viability, T/C (second compound 0.03 µM, first compound 0.316 µM): 92.5%
viability, T/C (second compound 0.03 µM, first compound 1 µM): 113%
viability, T/C (second compound 0.03 µM, first compound 3.16 µM): 127%
viability, T/C (second compound 0.03 µM, first compound 10 µM): 98.3%
viability, T/C (second compound 0.0949 µM, first compound 0.0316 µM): 112%
viability, T/C (second compound 0.0949 µM, first compound 0.1 µM): 107%
viability, T/C (second compound 0.0949 µM, first compound 0.316 µM): 113%
viability, T/C (second compound 0.0949 µM, first compound 1 µM): 116%
viability, T/C (second compound 0.0949 µM, first compound 3.16 µM): 114%
viability, T/C (second compound 0.0949 µM, first compound 10 µM): 105%
viability, T/C (second compound 0.3 µM, first compound 0.0316 µM): 76.2%
viability, T/C (second compound 0.3 µM, first compound 0.1 µM): 110%
viability, T/C (second compound 0.3 µM, first compound 0.316 µM): 111%
viability, T/C (second compound 0.3 µM, first compound 1 µM): 122%
viability, T/C (second compound 0.3 µM, first compound 3.16 µM): 130%
viability, T/C (second compound 0.3 µM, first compound 10 µM): 91.2%
viability, T/C (second compound 0.949 µM, first compound 0.0316 µM): 107%
viability, T/C (second compound 0.949 µM, first compound 0.1 µM): 110%
viability, T/C (second compound 0.949 µM, first compound 0.316 µM): 140%
viability, T/C (second compound 0.949 µM, first compound 1 µM): 130%
viability, T/C (second compound 0.949 µM, first compound 3.16 µM): 130%
viability, T/C (second compound 0.949 µM, first compound 10 µM): 90.2%
viability, T/C (second compound 3 µM, first compound 0.0316 µM): 128%
viability, T/C (second compound 3 µM, first compound 0.1 µM): 135%
viability, T/C (second compound 3 µM, first compound 0.316 µM): 123%
viability, T/C (second compound 3 µM, first compound 1 µM): 141%
viability, T/C (second compound 3 µM, first compound 3.16 µM): 120%
viability, T/C (second compound 3 µM, first compound 10 µM): 112%

IC50 (curve of first compound, second compound 0.01 µM): > 10 µM
IC50 (curve of first compound, second compound 0.0316 µM): > 10 µM
IC50 (curve of first compound, second compound 0.1 µM): > 10 µM
IC50 (curve of first compound, second compound 0.316 µM): > 10 µM
IC50 (curve of first compound, second compound 1 µM): > 10 µM
SMILES: O=C(c1cc(Cc2n[nH]c(=O)c3ccccc23)ccc1F)N1CCN(C(=O)C2CC2)CC1 + CNC(C)C(=O)NC1CN(S(=O)(=O)c2cccc(S(=O)(=O)N3CCC4CCC(C(=O)NC(c5ccccc5)c5ccccc5)N4C(=O)C(NC(=O)C(C)NC)C3)c2)CCC2CCC(C(=O)NC(c3ccccc3)c3ccccc3)N2C1=O
viability, T/C (second compound 0.01 µM, first compound 0.0316 µM): 74.8%
viability, T/C (second compound 0.01 µM, first compound 0.1 µM): 92.3%
viability, T/C (second compound 0.01 µM, first compound 0.316 µM): 60.6%
viability, T/C (second compound 0.01 µM, first compound 1 µM): 66.1%
viability, T/C (second compound 0.01 µM, first compound 3.16 µM): 73.4%
viability, T/C (second compound 0.01 µM, first compound 10 µM): 64.3%
viability, T/C (second compound 0.0316 µM, first compound 0.0316 µM): 66.8%
viability, T/C (second compound 0.0316 µM, first compound 0.1 µM): 77.8%
viability, T/C (second compound 0.0316 µM, first compound 0.316 µM): 98.6%
viability, T/C (second compound 0.0316 µM, first compound 1 µM): 75.8%
viability, T/C (second compound 0.0316 µM, first compound 3.16 µM): 64.9%
viability, T/C (second compound 0.0316 µM, first compound 10 µM): 64.6%
viability, T/C (second compound 0.1 µM, first compound 0.0316 µM): 71.8%
viability, T/C (second compound 0.1 µM, first compound 0.1 µM): 87.9%
viability, T/C (second compound 0.1 µM, first compound 0.316 µM): 76.4%
viability, T/C (second compound 0.1 µM, first compound 1 µM): 61.1%
viability, T/C (second compound 0.1 µM, first compound 3.16 µM): 74.6%
viability, T/C (second compound 0.1 µM, first compound 10 µM): 73.2%
viability, T/C (second compound 0.316 µM, first compound 0.0316 µM): 89%
viability, T/C (second compound 0.316 µM, first compound 0.1 µM): 95.7%
viability, T/C (second compound 0.316 µM, first compound 0.316 µM): 82.1%
viability, T/C (second compound 0.316 µM, first compound 1 µM): 71.2%
viability, T/C (second compound 0.316 µM, first compound 3.16 µM): 71.5%
viability, T/C (second compound 0.316 µM, first compound 10 µM): 61.5%
viability, T/C (second compound 1 µM, first compound 0.0316 µM): 73%
viability, T/C (second compound 1 µM, first compound 0.1 µM): 81.4%
viability, T/C (second compound 1 µM, first compound 0.316 µM): 78.8%
viability, T/C (second compound 1 µM, first compound 1 µM): 67.6%
viability, T/C (second compound 1 µM, first compound 3.16 µM): 62.5%
viability, T/C (second compound 1 µM, first compound 10 µM): 66.8%

IC50 (curve of compound): > 10 µM
SMILES: O=C(c1cc(Cc2n[nH]c(=O)c3ccccc23)ccc1F)N1CCN(C(=O)C2CC2)CC1
viability, T/C (compound 0.0316 µM): 80.7% and 80% and 97.9%
viability, T/C (compound 0.1 µM): 79.6% and 89.4% and 92.2%
viability, T/C (compound 0.316 µM): 71.8% and 89.7% and 84.1%
viability, T/C (compound 1 µM): 62.2% and 88.6% and 85.9%
viability, T/C (compound 3.16 µM): 76.3% and 93.4% and 74.3%
viability, T/C (compound 10 µM): 60.8% and 63.9% and 61.5%
